Test results from ChEMBL document CHEMBL2311248, “Discovery of potent myeloid cell leukemia 1 (Mcl-1) inhibitors using fragment-based methods and structure-based design” (J Med Chem, 2013).

How the values were obtained:
[1] = biological target: Induced myeloid leukemia cell differentiation protein Mcl-1 (Homo sapiens, UniProt Q07820)
Bcl-2-like protein 1 = Bcl-2-like protein 1 (Homo sapiens, UniProt Q07817)
[2] = biological target: Apoptosis regulator Bcl-2 (Homo sapiens, UniProt P10415)
Apoptosis regulator Bcl-2, sequence (P10415 whole entry): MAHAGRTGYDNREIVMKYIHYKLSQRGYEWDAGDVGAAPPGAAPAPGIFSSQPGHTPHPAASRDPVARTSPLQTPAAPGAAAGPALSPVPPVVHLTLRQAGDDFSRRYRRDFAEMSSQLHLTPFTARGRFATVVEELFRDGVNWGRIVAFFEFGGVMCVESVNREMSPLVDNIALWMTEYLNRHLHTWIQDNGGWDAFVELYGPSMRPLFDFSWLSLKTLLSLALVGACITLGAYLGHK

Induced myeloid leukemia cell differentiation protein Mcl-1, sequence (Q07820 whole entry): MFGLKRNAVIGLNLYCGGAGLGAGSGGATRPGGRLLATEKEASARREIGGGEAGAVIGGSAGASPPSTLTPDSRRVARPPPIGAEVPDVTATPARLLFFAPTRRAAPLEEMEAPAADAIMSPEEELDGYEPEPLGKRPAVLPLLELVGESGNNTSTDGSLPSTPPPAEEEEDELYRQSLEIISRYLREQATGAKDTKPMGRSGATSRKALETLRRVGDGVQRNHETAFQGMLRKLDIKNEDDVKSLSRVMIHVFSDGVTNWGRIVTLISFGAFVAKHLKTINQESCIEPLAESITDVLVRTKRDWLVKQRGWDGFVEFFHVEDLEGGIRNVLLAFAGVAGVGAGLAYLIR
Bcl-2-like protein 1, sequence (Q07817 whole entry): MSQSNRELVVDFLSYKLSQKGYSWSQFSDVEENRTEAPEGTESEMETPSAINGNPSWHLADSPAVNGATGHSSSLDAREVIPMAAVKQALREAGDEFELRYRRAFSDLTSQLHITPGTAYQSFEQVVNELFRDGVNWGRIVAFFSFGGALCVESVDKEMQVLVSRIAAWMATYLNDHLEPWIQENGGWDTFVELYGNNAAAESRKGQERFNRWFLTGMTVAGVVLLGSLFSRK

| SMILES | Ki [1] [µM] | Ki (Bcl-2-like protein 1) [µM] | Ki [2] [µM] |
| --- | --- | --- | --- |
| c1ccc2c(CSc3ncn[nH]3)cccc2c1 | 86 | > 1000 | > 1000 |
| Cc1cccc2c(-c3ccccc3)c(C(=O)O)[nH]c12 | – | > 1000 | > 1000 |
| Cc1c(C(=O)O)oc2c(C)cccc12 | – | > 1000 | > 1000 |
| O=C(O)c1cc2ccccc2n1CCCOc1cccc2ccccc12 | 0.47 | – | – |
| O=C(O)c1c(CCCOc2cccc3ccccc23)c2ccccc2n1Cc1ccccc1 | 0.29 | > 15 | > 15 |
| O=C(O)c1[nH]c2cc(Cl)ccc2c1CCCOc1cccc2c1CCCC2 | 0.066 | – | – |
| Cc1cc(OCCCc2c(C(=O)O)[nH]c3ccccc23)cc(C)c1Cl | – | > 15 | 5.3 |
| NC(=O)c1cc2ccccc2n1CCCOc1cccc2ccccc12 | > 500 | – | – |
| O=C(O)c1oc2ccccc2c1CCCOc1cccc2ccccc12 | – | – | 4.3 |
| Cc1cc(OCCC(=O)O)cc(C)c1Cl | 60 | > 1000 | > 1000 |
| O=C(O)c1cc2ccccc2[nH]1 [INDOLE-2-CARBOXYLIC ACID] | > 1000 | – | – |
| Cc1cc(OCC(=O)O)ccc1Cl | 103 | > 1000 | > 1000 |
| Cc1ccc2c(Cl)c(C(=O)O)sc2c1 | – | 230 | > 1000 |
| Cc1cc(OCCCn2c(C(=O)O)cc3ccccc32)ccc1Cl | 1.2 | – | – |
| O=C(O)c1oc2ccccc2c1CCc1cccc2ccccc12 | 9.5 | – | – |
| O=C(O)c1[nH]c2cc(Cl)ccc2c1CCCOc1cccc2ccccc12 | – | 6.8 | 0.96 |
| O=C(O)c1sc2cccc(Cl)c2c1Cl | – | > 1000 | > 1000 |
| O=C(O)c1sc2ccccc2c1CCc1cccc2ccccc12 | 12.5 | – | – |
| Cc1cc(OCCCc2c(C(=O)O)[nH]c3cc(Cl)ccc23)ccc1Cl | – | > 15 | 1.4 |
| Cn1c(C(=O)O)c(CCCOc2cccc3ccccc23)c2ccccc21 | – | > 15 | > 15 |
| O=C(O)c1cc2ccccc2o1 | > 1000 | – | – |
| Cc1cc(OCCCc2c(C(=O)O)sc3cc(Cl)ccc23)cc(C)c1Cl | – | 4.1 | 0.8 |
| O=C(O)c1oc2ccccc2c1CCCc1cccc2ccccc12 | 14.6 | – | – |
| Cc1cc(OCCCc2c(C(=O)O)[nH]c3ccccc23)ccc1Cl | – | > 15 | 9.1 |
| Cc1cc(OCCCc2c(C(=O)O)n(C)c3ccccc23)cc(C)c1Cl | – | > 15 | 7.4 |
| O=C(O)c1sc2cc(Cl)ccc2c1CCCOc1cccc2ccccc12 | – | – | 0.96 |
| O=C(O)c1sc2ccccc2c1CCCc1cccc2ccccc12 | 9.6 | – | – |
| Cc1cc(OCCCn2c(C(=O)O)cc3ccccc32)cc(C)c1Cl | 0.41 | – | – |
